Laboratory results: ChEMBL document CHEMBL1201862, “PubChem BioAssay data set” (2004)
Calls of active or inactive are those of the source.

Legend:
Melanocortin receptor 4 = Melanocortin receptor 4 (Homo sapiens, UniProt P32245); assay type: functional, cell-based;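 also: Cell-based assay with luminescence read-out, confirmatory dose-response testing for agonist activity of biased ligands at MC4R; human U2OS cells with tagged receptor and beta-arrestin; potency of agonists that increase receptor coupling to beta-arrestin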
Melanocortin receptor 4, sequence (P32245 whole entry): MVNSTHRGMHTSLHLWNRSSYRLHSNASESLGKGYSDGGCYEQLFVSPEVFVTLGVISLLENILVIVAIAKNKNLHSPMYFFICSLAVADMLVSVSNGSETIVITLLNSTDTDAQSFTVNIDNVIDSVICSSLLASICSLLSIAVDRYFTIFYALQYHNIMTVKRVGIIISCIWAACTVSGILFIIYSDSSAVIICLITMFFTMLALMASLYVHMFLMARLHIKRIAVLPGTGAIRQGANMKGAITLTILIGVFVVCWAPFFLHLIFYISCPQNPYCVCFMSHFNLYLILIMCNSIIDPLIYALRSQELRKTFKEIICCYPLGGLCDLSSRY

[1] = biological target: T1, Heat shock factor protein 1 (Mus musculus, UniProt P38532); assay: inhibition of MG132-induced HSE-luciferase signal, confirmation, cell-based, NIH3T3, luminescence, dose retest (AID 2382); assay type: functional;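 also: NIH3T3 fibroblasts with HSF1-driven luciferase reporter stressed by proteasome inhibitor MG132; luminescence from HSF1-driven luciferase expression after 8 hours of MG132 stress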
T1 sequence (P38532 whole entry): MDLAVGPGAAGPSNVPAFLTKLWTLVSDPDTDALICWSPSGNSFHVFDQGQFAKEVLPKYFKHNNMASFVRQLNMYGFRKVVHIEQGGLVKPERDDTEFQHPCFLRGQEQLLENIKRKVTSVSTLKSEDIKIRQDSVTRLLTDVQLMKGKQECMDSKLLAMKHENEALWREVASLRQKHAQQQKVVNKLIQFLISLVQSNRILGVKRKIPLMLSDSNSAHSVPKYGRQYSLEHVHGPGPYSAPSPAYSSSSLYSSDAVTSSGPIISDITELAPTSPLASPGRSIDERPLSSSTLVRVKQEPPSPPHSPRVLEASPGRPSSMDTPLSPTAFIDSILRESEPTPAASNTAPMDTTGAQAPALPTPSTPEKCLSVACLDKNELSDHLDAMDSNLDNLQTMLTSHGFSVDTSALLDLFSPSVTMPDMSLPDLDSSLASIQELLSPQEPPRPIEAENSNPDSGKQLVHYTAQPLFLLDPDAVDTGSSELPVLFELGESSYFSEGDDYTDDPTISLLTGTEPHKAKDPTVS

INS1 = assay: beta cell apoptosis inhibitors, cytokine rescue, dose response, luminescence, retest (AID 449756); assay type: functional, cell-based; conditions: Rattus norvegicus;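 also: cell death triggered by IL-1 beta plus TNF-alpha plus IFN-gamma mixture; protective hits raise ATP signal compared with cytokine alone wells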
[2] = inhibitors of SNCA 5'UTR-driven reporter translation, confirmation, H4 neuroglioma cells, luminescence (AID 1988); assay type: functional, cell-based
[3] = microbe, parasite or virus in culture; assay type: functional; conditions: Mycobacterium tuberculosis
[4] = Luminescence Cell-Based Dose Response HTS to Identify Inhibitors of 5'UTR Stem-Loop Driven Prion Protein mRNA Translation in H4 Neuroglioblastoma Cells. [Related pubchem assays: 1827 (Project Summary), 1813 (Primary HTS)]; assay type: functional
Streptokinase A = biological target: T2, Streptokinase A (Streptococcus pyogenes serotype M1, UniProt P10520); assay: S. pyogenes streptokinase expression inhibitors, potency, dose response, plasminogen activation absorbance, OD405 (AID 1914); assay type: functional, Streptococcus pyogenes M1 GAS;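 also: secreted streptokinase activity via plasminogen activation per viability signal from cell pellet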
T2 sequence (P10520 whole entry): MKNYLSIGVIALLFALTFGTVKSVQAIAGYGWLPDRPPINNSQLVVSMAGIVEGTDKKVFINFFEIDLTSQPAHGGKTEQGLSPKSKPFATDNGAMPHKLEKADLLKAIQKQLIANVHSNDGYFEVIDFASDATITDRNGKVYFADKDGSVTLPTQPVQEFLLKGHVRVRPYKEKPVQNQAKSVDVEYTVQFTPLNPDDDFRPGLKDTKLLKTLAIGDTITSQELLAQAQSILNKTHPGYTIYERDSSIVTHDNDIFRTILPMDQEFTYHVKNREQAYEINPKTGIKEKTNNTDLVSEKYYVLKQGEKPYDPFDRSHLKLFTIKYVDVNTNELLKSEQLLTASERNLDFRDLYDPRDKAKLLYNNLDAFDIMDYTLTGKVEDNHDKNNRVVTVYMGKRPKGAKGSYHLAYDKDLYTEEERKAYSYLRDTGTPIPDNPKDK

[5] = growth suppression of PTEN-null colon cells, dose response, cell-based, HCT116 PTEN knockout (AID 1047); assay type: functional;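 also: HCT116 colon tumor cells with PTEN knocked out; cells exposed to compound for 60 hours before readout; potency for loss of cell viability measured by luminescence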
[6] = biological target: Neurotensin receptor type 1 (Homo sapiens, UniProt P30989); assay type: functional;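 also: Image-based confirmatory dose-response assay measuring agonist activity at NTR1; NTR1-expressing U2OS osteosarcoma cells imaged for beta-arrestin GFP spot formation; agonist potency where compounds increase beta-arrestin recruitment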
Neurotensin receptor type 1, sequence (P30989 whole entry): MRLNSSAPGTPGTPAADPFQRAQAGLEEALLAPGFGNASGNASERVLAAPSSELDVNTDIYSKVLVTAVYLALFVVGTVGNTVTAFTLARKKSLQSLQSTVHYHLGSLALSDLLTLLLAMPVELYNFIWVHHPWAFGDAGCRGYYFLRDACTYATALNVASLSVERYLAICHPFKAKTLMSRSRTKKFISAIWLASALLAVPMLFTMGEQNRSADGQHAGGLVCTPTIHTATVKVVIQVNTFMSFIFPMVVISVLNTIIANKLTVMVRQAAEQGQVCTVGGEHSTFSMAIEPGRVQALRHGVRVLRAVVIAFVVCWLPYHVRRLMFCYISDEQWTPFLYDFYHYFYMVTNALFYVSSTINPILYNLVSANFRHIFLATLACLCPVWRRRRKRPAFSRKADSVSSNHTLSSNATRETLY

[7] = inhibitors of firefly luciferase expression or activity, dose response, H4 neuroglioma cells, luminescence (AID 1990); assay type: functional, cell-based
[8] = growth suppression of beta-catenin-knockout colon cells, dose response, cell-based, HCT116, human colon tumor (AID 1045); assay type: functional;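 also: HCT116 colon tumor cells with beta catenin knocked out; cells exposed to compound for 60 hours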
[9] = system: Streptococcus sp. 'group A'; assay: growth inhibition of control SK(-) GAS strain, dose response, counter-screen for streptokinase expression inhibitor project, luminescence, kanamycin, BacTiterGlo, confirmation (AID 1900); assay type: functional, organism-based
[10] = cytotoxicity in HEK-293T cells, dose response, cytotoxicity control for TCR NF-kB inhibitor project, luminescence, T-cell screen hits (AID 489026); assay type: functional, cell-based;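 also: cells exposed to compound about 14 hours before the viability readout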
Streptococcus = assay: Group A Streptococcus viability loss, dose response, counter-screen for streptokinase expression inhibitor project, luminescence, BacTiterGlo (AID 1915); assay type: functional, organism-based;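 also: potency for reduction of bacterial viability or growth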
Bcl-2-like protein 10 = biological target: T3, Bcl-2-like protein 10 (Homo sapiens, UniProt Q9HD36); assay: displacers of TR3 peptide from Bcl-B, primary screen, selectivity assay for Bfl-1 inhibitor project, biochemical, fluorescence polarization, FITC-TR3 peptide (AID 748);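 also: fluorescence polarization from a fluorescein-labelled TR3 peptide binding purified Bcl-B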
T3 sequence (Q9HD36 whole entry): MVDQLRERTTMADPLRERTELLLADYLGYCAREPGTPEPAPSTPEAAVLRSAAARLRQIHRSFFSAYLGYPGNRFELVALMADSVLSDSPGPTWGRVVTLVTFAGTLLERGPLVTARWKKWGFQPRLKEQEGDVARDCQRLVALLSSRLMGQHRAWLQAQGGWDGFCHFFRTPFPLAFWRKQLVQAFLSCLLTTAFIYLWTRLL

X-box-binding protein 1 = X-box-binding protein 1 (Homo sapiens, UniProt P17861); assay type: functional, Cricetulus griseus;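 also: confirmatory dose-response counter-screen serving a CHOP assay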
X-box-binding protein 1, sequence (P17861 whole entry): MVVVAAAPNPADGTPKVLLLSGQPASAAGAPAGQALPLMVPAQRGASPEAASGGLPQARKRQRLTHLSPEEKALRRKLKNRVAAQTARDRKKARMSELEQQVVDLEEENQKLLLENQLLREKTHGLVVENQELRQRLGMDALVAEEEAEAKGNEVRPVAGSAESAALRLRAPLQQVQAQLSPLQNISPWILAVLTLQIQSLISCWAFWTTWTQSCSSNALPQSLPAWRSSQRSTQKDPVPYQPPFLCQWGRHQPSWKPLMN

[11] = biological target: DNA damage-inducible transcript 3 protein (Mus musculus, UniProt P35639); assay type: functional, Cricetulus griseus
DNA damage-inducible transcript 3 protein, sequence (P35639 whole entry): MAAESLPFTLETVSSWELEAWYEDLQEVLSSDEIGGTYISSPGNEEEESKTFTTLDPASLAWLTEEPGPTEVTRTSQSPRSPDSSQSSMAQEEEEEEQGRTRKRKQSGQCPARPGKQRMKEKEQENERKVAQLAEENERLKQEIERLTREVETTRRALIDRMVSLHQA

[12] = biological target: T4, Aryl hydrocarbon receptor (Homo sapiens, UniProt P35869); assay: Luminescence-based cell-based high throughput dose response assay for activators of the Aryl Hydrocarbon Receptor (AHR). [Related pubchem assays: 2796 (Primary screen (AHR activators in singlicate)), 2845 (Confirmation screen (AHR activators in triplicate)), 434939 (Counterscreen (PXR activators in triplicate)), 2804 (Summary (AHR activators))]; assay type: ADME
T4 sequence (P35869 whole entry): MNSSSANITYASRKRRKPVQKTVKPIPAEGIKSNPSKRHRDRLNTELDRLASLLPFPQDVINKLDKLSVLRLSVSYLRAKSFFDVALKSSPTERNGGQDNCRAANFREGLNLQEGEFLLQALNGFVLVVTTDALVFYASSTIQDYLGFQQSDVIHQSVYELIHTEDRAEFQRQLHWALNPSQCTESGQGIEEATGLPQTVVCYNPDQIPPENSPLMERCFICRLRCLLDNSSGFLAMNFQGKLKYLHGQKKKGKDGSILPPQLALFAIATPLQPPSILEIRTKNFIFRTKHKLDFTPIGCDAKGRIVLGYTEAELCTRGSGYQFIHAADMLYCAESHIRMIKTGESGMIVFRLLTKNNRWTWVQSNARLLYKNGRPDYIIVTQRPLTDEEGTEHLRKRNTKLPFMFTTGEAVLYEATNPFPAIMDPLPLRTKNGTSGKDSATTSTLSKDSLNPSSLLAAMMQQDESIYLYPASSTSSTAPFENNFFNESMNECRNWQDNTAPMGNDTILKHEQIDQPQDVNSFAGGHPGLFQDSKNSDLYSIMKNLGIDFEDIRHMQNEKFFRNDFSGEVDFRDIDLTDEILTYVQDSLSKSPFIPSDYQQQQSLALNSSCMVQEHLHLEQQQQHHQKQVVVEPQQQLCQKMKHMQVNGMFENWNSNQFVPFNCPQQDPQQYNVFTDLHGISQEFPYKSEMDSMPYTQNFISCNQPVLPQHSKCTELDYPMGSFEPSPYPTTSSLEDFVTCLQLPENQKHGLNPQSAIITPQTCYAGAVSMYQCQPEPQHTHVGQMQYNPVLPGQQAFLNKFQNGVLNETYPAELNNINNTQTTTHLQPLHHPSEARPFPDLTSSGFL

Protein skinhead-1 = biological target: T5, Protein skinhead-1 (Caenorhabditis elegans, UniProt P34707); assay type: functional
T5 sequence (P34707 whole entry): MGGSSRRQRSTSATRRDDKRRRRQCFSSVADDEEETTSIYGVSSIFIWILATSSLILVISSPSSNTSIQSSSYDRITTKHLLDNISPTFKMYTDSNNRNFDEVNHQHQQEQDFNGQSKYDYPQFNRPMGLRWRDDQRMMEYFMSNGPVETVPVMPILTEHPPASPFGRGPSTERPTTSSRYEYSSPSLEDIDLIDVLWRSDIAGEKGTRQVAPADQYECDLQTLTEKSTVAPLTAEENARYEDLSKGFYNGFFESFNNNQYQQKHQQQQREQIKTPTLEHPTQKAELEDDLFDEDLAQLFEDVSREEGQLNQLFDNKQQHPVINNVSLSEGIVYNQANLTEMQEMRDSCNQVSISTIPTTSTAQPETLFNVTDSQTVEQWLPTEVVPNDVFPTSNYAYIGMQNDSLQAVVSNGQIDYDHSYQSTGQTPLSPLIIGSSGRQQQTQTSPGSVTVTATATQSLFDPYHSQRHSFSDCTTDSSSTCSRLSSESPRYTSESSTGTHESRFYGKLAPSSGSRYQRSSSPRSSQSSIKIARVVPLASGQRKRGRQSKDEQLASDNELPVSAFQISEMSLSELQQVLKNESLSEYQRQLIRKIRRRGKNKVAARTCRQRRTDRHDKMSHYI

[13] = biological target: T6, Oxysterols receptor LXR-beta (Homo sapiens, UniProt P55055); assay type: functional, cell-based;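 also: agonist activity at LXR measured by a cell-based luminescence readout across a dose range, run as a counterscreen for daf-12 agonists; HEK293 cells with Gal4-LXR fusion and GAL4-driven luciferase reporter; potency for activation of Gal4-LXR reporter so compounds are agonists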
T6 sequence (P55055 whole entry): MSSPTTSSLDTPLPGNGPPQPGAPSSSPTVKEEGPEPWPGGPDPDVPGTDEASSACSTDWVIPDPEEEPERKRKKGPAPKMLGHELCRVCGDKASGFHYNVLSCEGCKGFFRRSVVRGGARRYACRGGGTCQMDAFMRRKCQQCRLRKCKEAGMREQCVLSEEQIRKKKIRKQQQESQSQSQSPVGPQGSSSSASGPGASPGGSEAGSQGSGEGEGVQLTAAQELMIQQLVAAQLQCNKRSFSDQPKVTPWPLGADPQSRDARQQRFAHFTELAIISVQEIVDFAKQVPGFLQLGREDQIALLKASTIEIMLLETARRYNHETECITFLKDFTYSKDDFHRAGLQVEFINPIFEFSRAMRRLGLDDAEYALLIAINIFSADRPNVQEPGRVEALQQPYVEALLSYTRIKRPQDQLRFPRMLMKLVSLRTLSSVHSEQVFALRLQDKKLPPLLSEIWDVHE

[14] = HEp-2 cell cytotoxicity, dose response, cytotoxicity control for RSV inhibitor project, HTS (AID 2410); assay type: functional; conditions: human respiratory syncytial virus

## CC1=NNC(=O)/C1=C\c1cn(-c2ccccc2)nc1-c1ccc(Cl)cc1
Melanocortin receptor 4
  EC50: > 89.2 µM (inactive)
[1]
  EC50: 6.61 µM (active)
INS1
  AC50: 8.09 µM (active)
[2]
  EC50: 7.48 µM (active)
[3]
  CC50: 20.2 µM (active)
[4]
  EC50: > 60 µM (not active)
Streptokinase A
  EC50: 4.83 µM (active)
[5]
  EC50: 3.63 µM (active)
[6]
  EC50: 16.8 µM (active)
[7]
  EC50: > 30 µM (inconclusive)
[8]
  EC50: 3.51 µM (active)
[9]
  EC50: 5 µM (active)
[10]
  IC50: > 80 µM (inactive)
Streptococcus
  EC50: 14.5 µM (active)

## COc1cccc(N2CCN(Cc3ccsc3)CC2)c1
Bcl-2-like protein 10
  IC50: > 100 µM (inactive)

## Clc1ccc(Nc2nc(-c3cccs3)cs2)nc1
X-box-binding protein 1
  Absolute IC50 (XBP1): 10 µM
[11]
  Absolute IC50 (CHOP): 10 µM
[12]
  EC50: 1.58 µM (active)
Protein skinhead-1
  IC50: 13.6 µM (active)
[13]
  EC50: > 67.5 µM (inactive)
[14]
  CC50: 8.33 µM (active)

## Clc1ccc(-c2csc(N/N=C/c3cccnc3)n2)c(Cl)c1
X-box-binding protein 1
  Absolute IC50 (XBP1): 10 µM
[11]
  Absolute IC50 (CHOP): 10 µM
